Assay results from US20260115346A1, “METHOD AND DEVICE FOR DI[…]/OR S[…]” (SCHWING TECHNOLOGIES GMBH, priority 2022, published 2026).

Key:
[1] = test system: spores of the bacterium Geobacillus stearothermophilis; experiment: Validation tests for disinfection of spore strips SAL 10^5; type: cell-based, Geobacillus stearothermophilus; details: for Biological result #not sterile/#tested: 50-55° C.
[2] = test system: spores of the bacterium Geobacillus stearothermophilis; experiment: Validation tests for disinfection of laboratory utensils dripped with spore suspension SAL 10^6; type: cell-based, Geobacillus stearothermophilus; details: for Biological result #not sterile/#tested: PES in solution 4%
germs = experiment: Disinfection and sterilization process on various objects, number of germs after treatment; details: 55° C., 20 mbar; for Number of germs/m^3 after disinfection: 1.5 g/m^3 PES, 15 min; for Number of germs/m^3 after sterilization: 4 g/m^3 PES, 30 min
Experimental: Various objects were treated with the method according to the invention in order to disinfect and sterilize them.
The following process parameters were used in the disinfection process:
The following process parameters were used in the sterilization process: […]

[3] = test system: human patellar tendon allografts; details: in vitro study; cited from earlier work
[4] = object: Mobile electronic display device

## CC(=O)OO [PES, peracetic acid]
[1]; all the spore strips tested at different PES concentrations and different process times
  subsequent growth or multiplication of the spores: No subsequent growth or multiplication of the spores could be detected
[1]; test 1, PES in solution 6%, 3 g/m^3 PES in process chamber, 240 min
  Biological result #not sterile/#tested: 0/2
[1]; test 2, PES in solution 6%, 3 g/m^3 PES in process chamber, 120 min
  Biological result #not sterile/#tested: 0/1
[1]; test 3, PES in solution 6%, 1.7 g/m^3 PES in process chamber, 150 min
  Biological result #not sterile/#tested: 0/2
[1]; test 4, PES in solution 4%, 2 g/m^3 PES in process chamber, 120 min
  Biological result #not sterile/#tested: 0/1
[1]; test 5, PES in solution 4%, 1.9 g/m^3 PES in process chamber, 120 min
  Biological result #not sterile/#tested: 0/2
[1]; test 6, PES in solution 4%, 1.9 g/m^3 PES in process chamber, 90 min
  Biological result #not sterile/#tested: 0/2
[1]; test 7, PES in solution 4%, 1.9 g/m^3 PES in process chamber, 60 min
  Biological result #not sterile/#tested: 0/4
[1]; test 8, PES in solution 4%, 1.9 g/m^3 PES in process chamber, 45 min
  Biological result #not sterile/#tested: 0/1
[1]; test 9, PES in solution 4%, 1.9 g/m^3 PES in process chamber, 40 min
  Biological result #not sterile/#tested: 0/2
[1]; test 10, PES in solution 4%, 1.9 g/m^3 PES in process chamber, 30 min
  Biological result #not sterile/#tested: 0/2
[1]; test 11, PES in solution 4%, 1.9 g/m^3 PES in process chamber, 20 min
  Biological result #not sterile/#tested: 0/2
[1]; test 12, PES in solution 4%, 1.9 g/m^3 PES in process chamber, 15 min
  Biological result #not sterile/#tested: 0/1
[1]; test 13, PES in solution 4%, 1.9 g/m^3 PES in process chamber, 10 min
  Biological result #not sterile/#tested: 0/1
[1]; test 14, PES in solution 4%, 1.9 g/m^3 PES in process chamber, 5 min
  Biological result #not sterile/#tested: 0/1
[1]; test 15, PES in solution 4%, 1.7 g/m^3 PES in process chamber, 20 min
  Biological result #not sterile/#tested: 0/1
[1]; test 16, PES in solution 4%, 1.7 g/m^3 PES in process chamber, 15 min
  Biological result #not sterile/#tested: 0/1
[1]; test 17, PES in solution 4%, 1.5 g/m^3 PES in process chamber, 240 min
  Biological result #not sterile/#tested: 0/2
[1]; test 18, PES in solution 4%, 1.5 g/m^3 PES in process chamber, 150 min
  Biological result #not sterile/#tested: 0/2
[1]; test 19, PES in solution 4%, 1.3 g/m^3 PES in process chamber, 20 min
  Biological result #not sterile/#tested: 0/1
[1]; test 20, PES in solution 4%, 1.3 g/m^3 PES in process chamber, 15 min
  Biological result #not sterile/#tested: 0/1
[1]; test 21, PES in solution 4%, 0.94 g/m^3 PES in process chamber, 60 min
  Biological result #not sterile/#tested: 0/5
[1]; test 22, PES in solution 4%, 0.94 g/m^3 PES in process chamber, 40 min
  Biological result #not sterile/#tested: 0/1
[1]; test 23, PES in solution 4%, 0.94 g/m^3 PES in process chamber, 30 min
  Biological result #not sterile/#tested: 0/2
[1]; test 24, PES in solution 4%, 0.94 g/m^3 PES in process chamber, 20 min
  Biological result #not sterile/#tested: 0/2
[1]; test 25, PES in solution 4%, 0.94 g/m^3 PES in process chamber, 15 min
  Biological result #not sterile/#tested: 0/1
[1]; test 26, PES in solution 4%, 0.94 g/m^3 PES in process chamber, 10 min
  Biological result #not sterile/#tested: 0/1
[1]; test 27, PES in solution 4%, 0.94 g/m^3 PES in process chamber, 5 min
  Biological result #not sterile/#tested: 0/1
[1]; test 28, PES in solution 4%, 0.47 g/m^3 PES in process chamber, 60 min
  Biological result #not sterile/#tested: 0/1
[1]; test 29, PES in solution 4%, 0.47 g/m^3 PES in process chamber, 30 min
  Biological result #not sterile/#tested: 0/1
[1]; test 30, PES in solution 4%, 0.47 g/m^3 PES in process chamber, 15 min
  Biological result #not sterile/#tested: 0/1
[1]; test 31, PES in solution 4%, 0.47 g/m^3 PES in process chamber, 10 min
  Biological result #not sterile/#tested: 0/1
[1]; test 32, PES in solution 4%, 0.47 g/m^3 PES in process chamber, 5 min
  Biological result #not sterile/#tested: 0/1
[2]; test 5, 1.9 g/m^3 PES in process chamber, 120 min, growth after seven days
  Biological result #not sterile/#tested: 0/4
[2]; test 7, 1.9 g/m^3 PES in process chamber, 60 min, growth after seven days
  Biological result #not sterile/#tested: 0/4
[2]; test 8, 1.9 g/m^3 PES in process chamber, 45 min, growth after seven days
  Biological result #not sterile/#tested: 0/4
[2]; test 12, 1.9 g/m^3 PES in process chamber, 15 min, growth after seven days
  Biological result #not sterile/#tested: 0/4
[2]; test 13, 1.9 g/m^3 PES in process chamber, 10 min, growth after seven days
  Biological result #not sterile/#tested: 0/4
[2]; test 14, 1.9 g/m^3 PES in process chamber, 5 min, growth after seven days
  Biological result #not sterile/#tested: 0/4
[2]; test 15, 1.7 g/m^3 PES in process chamber, 20 min, growth after seven days
  Biological result #not sterile/#tested: 0/4
[2]; test 16, 1.7 g/m^3 PES in process chamber, 15 min, growth after seven days
  Biological result #not sterile/#tested: 0/4
[2]; test 19, 1.3 g/m^3 PES in process chamber, 20 min, growth after seven days
  Biological result #not sterile/#tested: 0/4
[2]; test 20, 1.3 g/m^3 PES in process chamber, 15 min, growth after seven days
  Biological result #not sterile/#tested: 0/4
[2]; test 21, 0.94 g/m^3 PES in process chamber, 60 min, growth after seven days
  Biological result #not sterile/#tested: 0/4
[2]; test 22, 0.94 g/m^3 PES in process chamber, 40 min, growth after seven days
  Biological result #not sterile/#tested: 0/4
[2]; test 23, 0.94 g/m^3 PES in process chamber, 30 min, not sterile: pipette
  Biological result #not sterile/#tested: (pipette) 1/8
[2]; test 24, 0.94 g/m^3 PES in process chamber, 20 min, growth after seven days
  Biological result #not sterile/#tested: 0/8
[2]; test 25, 0.94 g/m^3 PES in process chamber, 15 min, not sterile: pipette
  Biological result #not sterile/#tested: (pipette) 1/4
[2]; test 26, 0.94 g/m^3 PES in process chamber, 10 min, growth after seven days
  Biological result #not sterile/#tested: 0/4
[2]; test 27, 0.94 g/m^3 PES in process chamber, 5 min, not sterile: pipette
  Biological result #not sterile/#tested: (pipette) 1/4
[2]; test 28, 0.47 g/m^3 PES in process chamber, 60 min, growth after seven days
  Biological result #not sterile/#tested: 0/4
[2]; test 29, 0.47 g/m^3 PES in process chamber, 30 min, growth after seven days
  Biological result #not sterile/#tested: 0/4
[2]; test 30, 0.47 g/m^3 PES in process chamber, 15 min, not sterile: Eppi
  Biological result #not sterile/#tested: (Eppi) 1/4
[2]; test 31, 0.47 g/m^3 PES in process chamber, 10 min, not sterile: pipette
  Biological result #not sterile/#tested: (pipette) 1/4
[2]; test 32, 0.47 g/m^3 PES in process chamber, 5 min, not sterile: mask, pipette
  Biological result #not sterile/#tested: (mask, pipette) 2/4
[2]; various experiments, relatively low PES concentration in the process chamber, short process duration
  growth of the spores after seven days in nutrient solution: spore growth was observed after seven days
germs; object: FFP mask
  Number of germs/m^3 after disinfection: 1220 germs/m^3
  Number of germs/m^3 after sterilization: germ-free
germs; object: Infusomat
  Number of germs/m^3 after disinfection: 1160 germs/m^3
  Number of germs/m^3 after sterilization: germ-free
germs; object: MNS
  Number of germs/m^3 after disinfection: 870 germs/m^3
  Number of germs/m^3 after sterilization: germ-free
germs; [4]
  Number of germs/m^3 after disinfection: 430 germs/m^3
  Number of germs/m^3 after sterilization: germ-free
germs; object: Surgical clogs
  Number of germs/m^3 after disinfection: 1370 germs/m^3
  Number of germs/m^3 after sterilization: germ-free
germs; object: blower filter unit
  Number of germs/m^3 after disinfection: 1740 germs/m^3
  Number of germs/m^3 after sterilization: germ-free
germs; object: disposable gloves
  Number of germs/m^3 after disinfection: 920 germs/m^3
  Number of germs/m^3 after sterilization: germ-free
germs; object: protective overalls
  Number of germs/m^3 after disinfection: 270 germs/m^3
  Number of germs/m^3 after sterilization: germ-free
germs; object: visor
  Number of germs/m^3 after disinfection: 360 germs/m^3
  Number of germs/m^3 after sterilization: germ-free
[3]
  cytotoxic or pro-inflammatory effect: no cytotoxic or pro-inflammatory effect
